In PubChem BioAssay AID1845199 (Molecular Pharmacology Branch, DTP, NCI, 2023):
Where “and” joins values, the source holds several entries; their conditions need not be identical. Identical values can stand only once.

System: 556581-035-R-J1 tumor spheroid viability, % test/control
Assay: Anticancer human tumor 556581-035-R-J1 patient-derived ovarian carcinoma cell line growth inhibition
Settings: spheroids with HUVEC and MSC; for viability, T/C: stronger effect = lower value
Method in brief: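 Single agents and combinations were tested on spheroids built from tumor cells plus HUVEC and hMSC, at half-log dilutions starting at or near clinical Cmax, else 10 microM; final DMSO 0.25% (v/v).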
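Further: spheroids exposed to compounds for 7 days before viability read.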

## O=C(c1cc(Cc2n[nH]c(=O)c3ccccc23)ccc1F)N1CCN(C(=O)C2CC2)CC1 + Cn1nnc2c(C(N)=O)ncn2c1=O
Curve of first compound, second compound 1 µM
  IC50: > 30 µM
Curve of first compound, second compound 3.16 µM
  IC50: > 30 µM
Curve of first compound, second compound 10 µM
  IC50: > 30 µM
Curve of first compound, second compound 31.6 µM
  IC50: > 30 µM
Curve of first compound, second compound 100 µM
  IC50: > 30 µM
Second compound 1 µM, first compound 0.0949 µM
  viability, T/C: 99%
Second compound 1 µM, first compound 0.3 µM
  viability, T/C: 100%
Second compound 1 µM, first compound 0.949 µM
  viability, T/C: 102%
Second compound 1 µM, first compound 3 µM
  viability, T/C: 90.8%
Second compound 1 µM, first compound 9.49 µM
  viability, T/C: 80.2%
Second compound 1 µM, first compound 30 µM
  viability, T/C: 71.9%
Second compound 3.16 µM, first compound 0.0949 µM
  viability, T/C: 100%
Second compound 3.16 µM, first compound 0.3 µM
  viability, T/C: 99.8%
Second compound 3.16 µM, first compound 0.949 µM
  viability, T/C: 95.4%
Second compound 3.16 µM, first compound 3 µM
  viability, T/C: 89.9%
Second compound 3.16 µM, first compound 9.49 µM
  viability, T/C: 82.4%
Second compound 3.16 µM, first compound 30 µM
  viability, T/C: 63.9%
Second compound 10 µM, first compound 0.0949 µM
  viability, T/C: 98.6%
Second compound 10 µM, first compound 0.3 µM
  viability, T/C: 100%
Second compound 10 µM, first compound 0.949 µM
  viability, T/C: 98.7%
Second compound 10 µM, first compound 3 µM
  viability, T/C: 89.1%
Second compound 10 µM, first compound 9.49 µM
  viability, T/C: 74.6%
Second compound 10 µM, first compound 30 µM
  viability, T/C: 64.3%
Second compound 31.6 µM, first compound 0.0949 µM
  viability, T/C: 104%
Second compound 31.6 µM, first compound 0.3 µM
  viability, T/C: 101%
Second compound 31.6 µM, first compound 0.949 µM
  viability, T/C: 90.3%
Second compound 31.6 µM, first compound 3 µM
  viability, T/C: 85.3%
Second compound 31.6 µM, first compound 9.49 µM
  viability, T/C: 70.9%
Second compound 31.6 µM, first compound 30 µM
  viability, T/C: 62.9%
Second compound 100 µM, first compound 0.0949 µM
  viability, T/C: 92.7%
Second compound 100 µM, first compound 0.3 µM
  viability, T/C: 83.6%
Second compound 100 µM, first compound 0.949 µM
  viability, T/C: 80.2%
Second compound 100 µM, first compound 3 µM
  viability, T/C: 70.6%
Second compound 100 µM, first compound 9.49 µM
  viability, T/C: 67.9%
Second compound 100 µM, first compound 30 µM
  viability, T/C: 54.7%

## O=C(c1cc(Cc2n[nH]c(=O)c3ccccc23)ccc1F)N1CCN(C(=O)C2CC2)CC1 + CC[C@@]1(O)C(=O)OCc2c1cc1n(c2=O)Cc2cc3c(CN(C)C)c(O)ccc3nc2-1
Curve of first compound, second compound 0.003 µM
  IC50: > 30 µM
Curve of first compound, second compound 0.00949 µM
  IC50: > 30 µM
Curve of first compound, second compound 0.03 µM
  IC50: > 30 µM
Curve of first compound, second compound 0.0949 µM
  IC50: 6.48 µM
Curve of first compound, second compound 0.3 µM
  IC50: < 0.0949 µM
Second compound 0.003 µM, first compound 0.0949 µM
  viability, T/C: 103%
Second compound 0.003 µM, first compound 0.3 µM
  viability, T/C: 104%
Second compound 0.003 µM, first compound 0.949 µM
  viability, T/C: 103%
Second compound 0.003 µM, first compound 3 µM
  viability, T/C: 95.4%
Second compound 0.003 µM, first compound 9.49 µM
  viability, T/C: 83.3%
Second compound 0.003 µM, first compound 30 µM
  viability, T/C: 68.5%
Second compound 0.00949 µM, first compound 0.0949 µM
  viability, T/C: 93%
Second compound 0.00949 µM, first compound 0.3 µM
  viability, T/C: 95.8%
Second compound 0.00949 µM, first compound 0.949 µM
  viability, T/C: 92.7%
Second compound 0.00949 µM, first compound 3 µM
  viability, T/C: 86.9%
Second compound 0.00949 µM, first compound 9.49 µM
  viability, T/C: 77.7%
Second compound 0.00949 µM, first compound 30 µM
  viability, T/C: 68%
Second compound 0.03 µM, first compound 0.0949 µM
  viability, T/C: 74.8%
Second compound 0.03 µM, first compound 0.3 µM
  viability, T/C: 77.9%
Second compound 0.03 µM, first compound 0.949 µM
  viability, T/C: 75.7%
Second compound 0.03 µM, first compound 3 µM
  viability, T/C: 72.9%
Second compound 0.03 µM, first compound 9.49 µM
  viability, T/C: 63.7%
Second compound 0.03 µM, first compound 30 µM
  viability, T/C: 55.1%
Second compound 0.0949 µM, first compound 0.0949 µM
  viability, T/C: 57.2%
Second compound 0.0949 µM, first compound 0.3 µM
  viability, T/C: 58.2%
Second compound 0.0949 µM, first compound 0.949 µM
  viability, T/C: 58.3%
Second compound 0.0949 µM, first compound 3 µM
  viability, T/C: 53.4%
Second compound 0.0949 µM, first compound 9.49 µM
  viability, T/C: 47.2%
Second compound 0.0949 µM, first compound 30 µM
  viability, T/C: 38.6%
Second compound 0.3 µM, first compound 0.0949 µM
  viability, T/C: 16.4%
Second compound 0.3 µM, first compound 0.3 µM
  viability, T/C: 17.7%
Second compound 0.3 µM, first compound 0.949 µM
  viability, T/C: 15%
Second compound 0.3 µM, first compound 3 µM
  viability, T/C: 14.6%
Second compound 0.3 µM, first compound 9.49 µM
  viability, T/C: 12.4%
Second compound 0.3 µM, first compound 30 µM
  viability, T/C: 12.9%

## CC1COCCN1c1cc(-c2ccnn2C)c2ccnc(-c3ccn[nH]3)c2n1 (configuration not stated)
Compound 0.0316 µM
  viability, T/C: 95.7% and 92.7% and 89.5%
Compound 0.1 µM
  viability, T/C: 76.3% and 75.8% and 79.5%
Compound 0.316 µM
  viability, T/C: 56.5% and 57.8% and 55.5%
Compound 1 µM
  viability, T/C: 45.5% and 44.4% and 41.9%
Compound 3.16 µM
  viability, T/C: 39.9% and 39% and 33.9%
Compound 10 µM
  viability, T/C: 35.6% and 32.5% and 30.2%
Curve of compound
  IC50: 0.636 µM and 0.647 µM and 0.521 µM
